From ChEMBL document CHEMBL1131777, “Analogs of 4-(3-bromo-8-methyl-10-methoxy-6,11-dihydro-5H-benzo[5,6]-cyclo hepta[1,2-b]pyridin-11-yl)-1-(4-pyridinylacetyl)piperidine N-oxide as inhibitors of farnesyl protein transferase” (Bioorg Med Chem Lett, 1999)

What was measured:
[1] = biological target: T1, Protein farnesyltransferase (Homo sapiens, UniProt P49354+P49356); assay: In vitro inhibition of human Farnesyltransferase; type: protein-complex assay
[2] = biological target: T1, Protein farnesyltransferase; assay: Percent inhibition of human Farnesyltransferase; type: protein-complex assay; conditions: concentration not given here

SMILES	IC50 [1]	inhibition [2]
COc1cc(C)cc2c1C(C1CCN(C(=O)Cc3cc[n+]([O-])cc3)CC1)c1ncc(C3CC3)cc1CC2 (configuration not stated)	200 nM	–
C=Cc1cnc2c(c1)CCc1cc(C)cc(OC)c1C2C1CCN(C(=O)Cc2cc[n+]([O-])cc2)CC1 (configuration not stated)	59 nM	–
COc1cc(C)cc2c1[C@@H](C1CCN(C(=O)Cc3cc[n+]([O-])cc3)CC1)c1ncc(Br)cc1CC2	3.6 nM	–
COc1cc(C)cc2c1C(C1CCN(C(=O)Cc3cc[n+]([O-])cc3)CC1)c1ncc(C)cc1CC2 (configuration not stated)	34 nM	–
COc1cc(C)cc2c1C(C1CCN(C(=O)Cc3cc[n+]([O-])cc3)CC1)c1ncc(C(C)(C)O)cc1CC2 (configuration not stated)	–	26%
CCc1cnc2c(c1)CCc1cc(C)cc(OC)c1C2C1CCN(C(=O)Cc2cc[n+]([O-])cc2)CC1 (configuration not stated)	74 nM	–
COc1cc(C)cc2c1C(C1CCN(C(=O)Cc3cc[n+]([O-])cc3)CC1)c1ncccc1CC2 (configuration not stated)	140 nM	–
